In data set [1] the test system is Jurkat T cells. Nature of the data set: Internalization of FITC-labeled peptides by Jurkat T cells, FACS. The conditions noted are these: 5 μM, 1 h, 37 °C, full medium with 10% FBS, washed, fixed with 4% paraformaldehyde, FACSCalibur, compared with untreated cells, Fig. 5A. Here is the method:
For the internalization experiment, cells were seeded at 1 × 10^6 cells/ml with 8 ml of full medium into 75-cm^2 flasks and treated with respective 200 nM proteins for 2 h or 5 μM peptides for 1 h.
Human A+-helix peptide ([…]; corresponding to the cleaved N-terminal peptide of hPCI), mouse A+-helix peptide ([…]; corresponding to the cleaved N-terminal peptide of mPCI), and TAT peptide ([…]) ([42]) were synthesized and labeled with FITC (GenScript, Piscataway, NJ). […] Fluorescence-activated cell sorting (FACS) analysis was performed with a FACSCalibur flow cytometer (BD Biosciences). Further data analysis was done with Flowing Software ([43]). For confocal microscopy, the fixed cells were suspended with Vectashield mounting medium containing […] DAPI (Vector Laboratories, Burlingame, CA) and transferred onto slides. Confocal images were taken by a Zeiss LSM-510 Meta confocal microscope system (Zeiss, Jena, Germany). Zeiss LSM Image Browser software was applied for further analysis of images.

For data set [2], the system named is urokinase. Put plainly: 30 nM urokinase. As to conditions: 37 °C, up to 120 min.
In data set [3] the test system is enteropeptidase. Nature of the data set: 30 nM enteropeptidase. As to conditions: 37 °C, up to 120 min.
Data set [4] can be described thus: media from untreated U937 cells (RMPI 1640 medium). As to conditions: 37 °C, up to 4 h.
Data set [5] deals with testisin. Put plainly: 30 nM testisin in testisin buffer (50 mM Tris, 150 mM NaCl, 10 mM CaCl2, pH 7.5). As to conditions: 37 °C, up to 120 min.

In the case of Fluorescein Isothiocyanate [free FITC], in data set [1], the “cellular fluorescence signal (FACS)” value is reported as “small shift”.

For RRHSHSKKKKAKESSVGAVGPPSSKDFA..., the not cleaved entry was “still recognized by anti-penta-His IgG after 2-h incubation” in data set [2]; “still recognized by anti-penta-His IgG after 2-h incubation” in data set [3]; “did not affect the molecular weight of mPCI upon incubation for 1 and 4 h” in data set [4]. The cleaved bond entry in data set [5] is “Ala18-Val19”.

For the origin of these results see publication PMC4317013 (The Journal of Biological Chemistry, 2014).
